Data set [1] has as its target NET (Rattus norvegicus, UniProt Q63380). As to the kind of experiment: Functional uptake profile, rat NET. The data set is classed as cell-based.
Data set [2] relates to rat (immobility in forced swim test). As to the kind of experiment: Forced swim test (behavioral despair assay). The format is in vivo. An excerpt: The objective of this study was to assess the antidepressant effects of test compounds in the behaviral despair assay in rats using a modification of a method described by Porsolt R. D. et al. in Behavioral despair in rats: a new model sensitive to antidepressant treatment, Eur. J. Pharmacol., 47: 379-391, 1978; Porsolt et al., Nature 266: 730-732, 1977; and Porsolt et al., in Psychopharmacology, Olivier, Mos, and Slangen (eds) Birkhauser Verlag, Basel, pp. 137-159, 1991. Briefly, when mice (or rats) are forced to swim in a cylinder from which no escape is possible, they readily adopt a characteristic immobile posture and make no further attempts to escape except for small movements needed to keep floating. The immobility is considered by some to reflect a “depressive mood” (Porsolt et al., Nature 266: 730-732, 1977) in which animals cease to struggle to escape the aversive situation. The immobility induced by the procedure is influenced by a wide variety of antidepressants (Porsolt et al., in Psychopharmacology, Olivier, Mos, and Slangen (eds). Birkhauser. Verlag, Basel, pp. 137-159, 1991) and has a good predictive validity in that it detects antidepressants with different mechanisms of action (TCAs, SSRIs, MAOIs, and other atypical ones). The test is sensitive to muscle-relaxant (benzodiazepines) and sedative (neuroleptics) effects, leading to enhanced immobility (Porsolt et al., supra).
In a typical experiment, animals are placed singly into a cylinder (e.g. 46×30 cm) containing fresh water at about 20° C. for 6 minutes. The activity (or immobility) of the animal is measured by an observer minute by minute. In more detail, the animals were preconditioned in a pretest session, where the rats were individually forced to swim inside a vertical plexiglass cylinder containing water maintained at 19-20° C. After 15 minutes in the water, they were allowed to dry for 15 minutes in a heated enclosure. Twenty four hours later, the compounds were administered either intraperitoneally or orally to the animals. One hour after administration of the test compound, animals were put back into the cylinder containing water. The total duration of immobility was measured during the last 4 minutes of a 6 minute test.
The results are expressed as the percentage of variation of the total duration of immobility calculated from the mean value of the vehicle-treated group (% variation=[(immobility duration of vehicle−immobility duration of test compound)/(immobility duration of vehicle)]×100%). Only compounds which exibit a statistically significant variation (e.g. >30%) are considered effective in this in vivo model.
Sibutramine (2.0 and 2.5 mg/kg), Bupropion (7.5 and 10 mg/kg), and Imipramine (30 mg/kg) were similarly administered as controls. […] Asterisks indicate highly statistical significant results.
A fourth DAT inhibitor, CNS-28,002 was administered p.o. as a racemic mixture of diastereomers at either 35 or 75 mg/kg. Sibutramine (5.0 and 3.75 mg/kg), Bupropion (30 and 40 mg/kg), and Imipramine (100 mg/kg) were similarly administered as controls.
Sibutramine (5.0 and 3.75 mg/kg), Bupropion (30 and 40 mg/kg), and Imipramine (100 mg/kg) were similarly administered as controls.

Data set [3] deals with rat. Put plainly: Acute single-dose toxicology (maximum tolerated dose). The format is in vivo. The following applies: for observed toxicological effects: rat (n = 5), i.v., observed for 72 hours. How it is done: An in vivo evaluation was carried out to determine the maximum tolerated dose of numerous test compounds in rat. The compounds were administered i.v., and the animals were then observed for 72 hours.
Briefly, experimental rats, in groups of 5 animals, were administered with various doses of respective DAT inhibitors (e.g. 30, 90, 120, and 200 mg/kg), and the observed toxicological effects were recorded.

Data set [4] addresses T1, NET (Homo sapiens, UniProt P23975).
T1 construct: expressed in transfected cells; host or cells: MDCK
Put plainly: Functional norephinephrine uptake inhibition, MDCK cell line. The format is cell-based. How it is done:
(§1) Functional activity of the compounds was determined in vitro in cellular assays using recombinant human cell lines.

The target in data set [5] is T2, 5-HT (serotonine uptake) (Homo sapiens, UniProt P31645).
T2 construct: expressed in transfected cells; host or cells: HEK-293
T2 sequence (P31645 whole entry): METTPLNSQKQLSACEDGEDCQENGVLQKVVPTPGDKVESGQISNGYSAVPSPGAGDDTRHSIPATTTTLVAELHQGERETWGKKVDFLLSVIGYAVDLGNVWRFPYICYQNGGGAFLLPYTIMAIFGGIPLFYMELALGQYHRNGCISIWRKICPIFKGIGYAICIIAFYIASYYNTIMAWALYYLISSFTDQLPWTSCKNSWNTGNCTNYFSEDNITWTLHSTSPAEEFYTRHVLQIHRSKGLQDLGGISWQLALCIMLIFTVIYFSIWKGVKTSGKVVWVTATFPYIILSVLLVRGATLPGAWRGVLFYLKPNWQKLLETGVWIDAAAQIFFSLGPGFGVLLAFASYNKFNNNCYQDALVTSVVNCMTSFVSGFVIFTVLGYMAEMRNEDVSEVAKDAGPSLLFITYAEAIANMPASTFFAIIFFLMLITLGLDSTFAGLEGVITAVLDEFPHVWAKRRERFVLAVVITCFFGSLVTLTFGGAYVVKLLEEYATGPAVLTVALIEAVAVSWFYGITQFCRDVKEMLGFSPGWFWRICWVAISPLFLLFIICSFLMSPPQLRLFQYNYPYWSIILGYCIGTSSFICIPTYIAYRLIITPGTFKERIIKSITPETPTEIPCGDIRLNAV
The data set is classed as cell-based. The following applies: functional uptake. How it is done:
as §1

Data set [6] deals with T3, DAT (Homo sapiens, UniProt Q01959).
T3 construct: expressed in transfected cells
T3 sequence (Q01959 whole entry): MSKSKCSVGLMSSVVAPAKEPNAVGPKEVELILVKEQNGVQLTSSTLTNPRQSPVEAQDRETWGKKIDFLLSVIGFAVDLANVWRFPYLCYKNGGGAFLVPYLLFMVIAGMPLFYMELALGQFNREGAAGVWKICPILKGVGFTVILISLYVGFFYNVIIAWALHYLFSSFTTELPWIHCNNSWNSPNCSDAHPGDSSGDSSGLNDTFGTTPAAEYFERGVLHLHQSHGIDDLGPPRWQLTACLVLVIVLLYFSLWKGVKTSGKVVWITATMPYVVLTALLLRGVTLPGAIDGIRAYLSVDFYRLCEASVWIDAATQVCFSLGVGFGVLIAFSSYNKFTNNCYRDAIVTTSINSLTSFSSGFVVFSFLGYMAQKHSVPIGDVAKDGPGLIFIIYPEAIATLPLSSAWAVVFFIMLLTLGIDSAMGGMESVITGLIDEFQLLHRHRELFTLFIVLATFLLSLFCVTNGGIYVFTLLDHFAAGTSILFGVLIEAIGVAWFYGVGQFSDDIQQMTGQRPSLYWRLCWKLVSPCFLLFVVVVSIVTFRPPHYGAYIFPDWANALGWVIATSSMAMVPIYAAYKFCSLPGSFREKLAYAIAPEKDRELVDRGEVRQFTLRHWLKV
The format is cell-based. The following applies: functional uptake. As to the method:
as §1

Data set [7] concerns Sprague-Dawley rats. As to the kind of experiment: 7-day multidose oral dosing toxicology study. The following applies: 7 days; for observed symptoms: Sprague-Dawley rats (n = 6; 3M/3F), oral. As to the method:
The oral doses tested are 50 mg/kg/day, 100 mg/kg/day, 200 mg/kg/day, and 400 mg/kg/day.

[8] abbreviates: i.p., e.g. 7.5 and 15 mg/kg, racemic mixtures of diastereomers, FIG. 2.
[9] abbreviates: p.o., 35 or 75 mg/kg, FIG. 3 and FIG. 4.
The mark [10] stands for this setting: single dose 200 mg/kg, 200 mg/kg.

Entries after “also recorded” stand apart in the source; their conditions may differ.

Chain of NET (Rattus norvegicus, UniProt Q63380) (Q63380 1-617): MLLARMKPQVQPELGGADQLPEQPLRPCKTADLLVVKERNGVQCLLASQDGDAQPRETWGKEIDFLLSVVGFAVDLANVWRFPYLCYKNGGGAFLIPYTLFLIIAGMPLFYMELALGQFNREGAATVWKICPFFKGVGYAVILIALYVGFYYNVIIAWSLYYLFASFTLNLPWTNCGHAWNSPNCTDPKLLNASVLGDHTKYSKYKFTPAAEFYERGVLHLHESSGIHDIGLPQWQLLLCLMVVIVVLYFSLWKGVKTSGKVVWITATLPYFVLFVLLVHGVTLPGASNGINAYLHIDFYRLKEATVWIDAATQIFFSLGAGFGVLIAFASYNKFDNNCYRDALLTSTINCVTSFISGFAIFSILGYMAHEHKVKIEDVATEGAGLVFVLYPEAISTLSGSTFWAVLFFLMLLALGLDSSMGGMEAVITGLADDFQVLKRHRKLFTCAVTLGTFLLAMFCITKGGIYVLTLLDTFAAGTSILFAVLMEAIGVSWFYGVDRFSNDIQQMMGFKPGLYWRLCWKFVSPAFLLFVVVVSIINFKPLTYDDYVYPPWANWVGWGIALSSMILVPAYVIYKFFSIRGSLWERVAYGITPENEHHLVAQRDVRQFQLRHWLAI
T1 sequence (P23975 whole entry): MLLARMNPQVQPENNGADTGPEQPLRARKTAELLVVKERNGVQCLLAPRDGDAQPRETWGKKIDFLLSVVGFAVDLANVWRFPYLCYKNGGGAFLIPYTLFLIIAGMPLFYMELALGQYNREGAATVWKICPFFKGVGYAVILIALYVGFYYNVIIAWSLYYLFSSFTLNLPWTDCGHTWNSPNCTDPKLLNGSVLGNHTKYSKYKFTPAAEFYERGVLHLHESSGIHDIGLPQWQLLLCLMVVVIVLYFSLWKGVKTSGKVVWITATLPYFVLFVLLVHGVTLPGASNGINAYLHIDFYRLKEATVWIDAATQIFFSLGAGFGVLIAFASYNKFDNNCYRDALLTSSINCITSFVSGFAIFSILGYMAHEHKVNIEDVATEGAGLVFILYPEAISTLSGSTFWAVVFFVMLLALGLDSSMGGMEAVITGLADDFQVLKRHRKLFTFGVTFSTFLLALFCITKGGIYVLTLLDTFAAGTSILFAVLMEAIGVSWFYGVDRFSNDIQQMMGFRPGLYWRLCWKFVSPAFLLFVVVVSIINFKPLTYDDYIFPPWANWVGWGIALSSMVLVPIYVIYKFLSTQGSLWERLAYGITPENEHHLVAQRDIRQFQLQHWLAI

Consider `CC1CCN(CC2(c3ccc(Cl)cc3)CCC2)CC1COc1ccc(C(F)(F)F)cc1` (centres unmarked) [CNS-27,100], for which, in data set [1], a half-maximal response (EC50) required 1000 nM. Moreover, the “in vivo efficacy in forced swim test compared with commercial drugs” value was “performed equally well, if not better, than the commercial drugs Sibutramine, Bupropion, and Imipramine” in data set [2] (setting [8]); “performed equally well, if not better, than the commercial drugs Sibutramine, Bupropion, and Imipramine” in data set [2] (setting [9]). Further, the observed toxicological effects result in data set [3] (setting [10]) is “decreased grip strength, and slight depression”. Further, the “doses tolerated well with no significant observed symptoms” value in data set [3] (rat, single dose) was “below 120 mg/kg”.

On to `CC1C(COc2ccc(C(F)(F)F)cc2)CCCN1CC(O)C1(c2ccc(Cl)cc2)CCC1` (centres unmarked) [CNS-28,002], for which, in data set [2] (setting [9]), the “in vivo efficacy in forced swim test compared with commercial drugs” value was “performed equally well, if not better, than the commercial drugs Sibutramine, Bupropion, and Imipramine”. Also, in data set [3] (setting [10]), the observed toxicological effects entry was “no observed symptoms”.

Turning to `CC1CCC(COc2ccc(C(F)(F)F)cc2)CN1CC1(c2ccc(Cl)cc2)CCC1` (centres unmarked) [CNS-28,100], the EC50 in data set [1] was determined as 300 nM. Further, in data set [2] (setting [8]), the “in vivo efficacy in forced swim test compared with commercial drugs” value is “performed equally well, if not better, than the commercial drugs Sibutramine, Bupropion, and Imipramine”.

For `CC1CCC(COc2ccc(C(F)(F)F)cc2)CN1CC(O)C1(c2ccc(Cl)cc2)CCC1` (centres unmarked) [CNS-28,200], the “in vivo efficacy in forced swim test compared with commercial drugs” value in data set [2] (setting [8]) was “performed equally well, if not better, than the commercial drugs Sibutramine, Bupropion, and Imipramine”. In addition, the observed toxicological effects entry in data set [3] (single dose 120 mg/kg, 120 mg/kg) is “decreased grip strength and limb tone and convulsions”; in data set [3] (setting [10]), “Convulsions”. In addition, in data set [3] (rat, dose with convulsions vs forced swim test effective dose), the “toxic dose relative to the effective dose shown in FIG. 2” value is “about 10 times”.

For the compound `CC(C)C[C@@H](N)C1(c2ccc(Cl)cc2)CCC1` [R-DDMS], the EC50 came to 200 nM in data set [4], 1500 nM in data set [5] and 100 nM in data set [6].

As to `CN[C@H](CC(C)C)C1(c2ccc(Cl)cc2)CCC1` [R-DMS], the EC50 turned out to be 300 nM in data set [4], 1500 nM in data set [5] and 30 nM in data set [6].

Take `CC(C)CC(N(C)C)C1(c2ccc(Cl)cc2)CCC1` (centres unmarked) [Sibutramine]: the observed symptoms result is “decreased grip strength, depression” in data set [7] (100 mg/kg/day) and “convulsions; also recorded: Convulsions;” in data set [7] (400 mg/kg/day). Besides, the “deaths (number of animals)” value in data set [7] (n = 6, oral, 200 mg/kg/day) amounted to 2 deaths. In data set [7] (n = 6, oral, 200 mg/kg/day), the “self mutilation (number of animals)” value turned out to be 6 self mutilation.

What is called EC50 is the concentration needed to bring the measured effect to its halfway point.
